In paper PMC12656329, “Specific Hepatorenal Toxicity and Cross-Species Susceptibility of Eight Representative Pesticides” (Toxics, 2025):
Entries after “also recorded” stand apart in the source; their conditions may differ.

Columns and labels:
[1] = basis species not given; ref PPDB: Pesticide Properties DataBase; cited from earlier work
293T renal cells [2] = assay: ELISA of toxicity biomarkers (LDH, KIM-1) in culture supernatant, 293T; type: cell-based, human; details: 293T cells, 24 h exposure at median lethal concentration, vs control
Procedure: The levels of hepatotoxicity biomarkers (ALT, AST, ALP) and nephrotoxicity biomarkers (KIM-1, LDH) in cell culture supernatant were quantified using commercially available ELISA kits (Cloud-Clone Corp., Wuhan, China). 100 μL of the supernatant was added to the pre-coated wells and incubated according to the manufacturer’s protocol (five replicates). After washing, the appropriate detection antibody and substrate were added, and the absorbance was measured at 450 nm using microplate reader. The concentrations of the biomarkers were determined based on standard curves.

NRK renal cells = assay: CCK-8 cytotoxicity assay, NRK; type: cell-based; details: Rattus norvegicus; CCK-8, 24 h exposure
Procedure: (§1) Human embryonic kidney 293T (HEK293T) cells and rat renal NRK cells were maintained in high-glucose DMEM supplemented with 10% fetal bovine serum (FBS) and 1% penicillin–streptomycin at 37 °C under 5% CO2 until reaching 70–80%. Human liver CCC-HEL-1 cells were cultured under identical conditions but with 20% FBS, while rat normal hepatocytes were grown in high-glucose MEM containing 20% FBS and 1% penicillin–streptomycin. Stock solutions (500 g/L) of eight pesticide standards were prepared in dimethyl sulfoxide (DMSO) and stored at −20 °C. Working concentrations were freshly diluted in serum-containing culture medium prior to each experiment.
(§2) The cytotoxicity of eight pesticides on four mammalian cell lines was assessed using the Cell Counting Kit-8 (CCK-8) assay. Initially, stock solutions of each pesticide were prepared by dissolving the compound in dimethyl sulfoxide (DMSO) to a final concentration of 500 g/L. For the assay, cells were seeded into 96-well plates at a density of 2 × 10^4 cells per well in 100 µL of medium and incubated for 24 h at 37 °C under a 5% CO2 atmosphere to allow for attachment. Subsequently, the culture medium was replaced with fresh medium containing the pesticides at a series of final concentrations (0, 10, 100, 200, 400, 800, 1000, and 2500 mg/L). Pesticide working concentrations were prepared through serial dilution of the 500 g/L DMSO stock solution, resulting in variable final DMSO concentrations across treatment groups (ranging from 0.002% to 0.5% v/v). A media-only blank (no cells) was included for background absorbance correction, and a solvent control (0.1% DMSO, no pesticide) was used to account for any vehicle effects. All conditions were performed in five replicates. […] At DMSO concentrations ranging from 0.1% to 0.2%, the viability of all four cell lines remained stable above 80%. At a 1% DMSO concentration, the viability of all four cell types was around 50% or higher (Supplementary Figure S5). Following 24 h of exposure, 10 µL of CCK-8 reagent was added to each well. Absorbance Measurement: After an additional 1 h of incubation in the dark, the optical density (OD) at 450 nm was recorded using a microplate reader. Cell viability was calculated by comparing the OD values of treated groups with those of the blank control. Although some test concentrations exceeded the water solubility of the pesticides, the combination of DMSO and serum in the culture medium maintained a uniform exposure system. No precipitation was observed during the experiment, ensuring that the measured effects are attributed to the bioavailable fraction of the compound. […]
(§3) 1. Pesticide Exposure: After removing the medium, fresh medium containing gradient concentrations (0–2500 mg/L) of each pesticide was added (five replicates per concentration).
(§4) Following 24 h of exposure, 10 µL of CCK-8 reagent was added to each well.
(§5) 2. Absorbance Measurement: After 1 h of dark incubation, the OD at 450 nm was measured using a microplate reader.
(§6) 3. Cell Viability Calculation: Viability was determined by comparing the OD values of treated groups to the blank control. […]

CCC-HEL-1 hepatocytes = assay: CCK-8 cytotoxicity assay, CCC-HEL-1; type: cell-based; details: Homo sapiens, Hepatocyte; CCK-8, 24 h exposure
Procedure: as §1, §2, §3, §4, §5, §6

IAR hepatocytes = assay: CCK-8 cytotoxicity assay, IAR; type: cell-based; details: Rattus norvegicus, Hepatocyte; CCK-8, 24 h exposure
Procedure: as §1, §2, §3, §4, §5, §6

[3] = test system: MRP2 in CCC-HEL-1 hepatic cells; assay: MRP2 immunofluorescence staining, CCC-HEL-1; type: cell-based, human; details: CCC-HEL-1 cells, 24 h at IC50, immunofluorescence
Procedure: Cells were seeded at a density of 1 × 10^5 cells per well in immunofluorescence-specific glass-bottom dishes and allowed to adhere for 24 h. […] Following treatment, cells were fixed with 4% paraformaldehyde for 15 min at room temperature and permeabilized with 0.1% Triton X-100 for 10 min. Non-specific binding was blocked with 5% bovine serum albumin (BSA) for 1 h at room temperature. Cells were then incubated with primary antibody against MRP2 (1:300 dilution) overnight at 4 °C. After three washes with PBS, cells were treated with secondary antibody (rabbit anti-IgG, 1:600 dilution) for 1 h at room temperature and washed three times with PBS. Anti-MRP2 antibody (Abcam, ab172630) and Alexa Fluor® 488-conjugated anti-rabbit IgG secondary antibody (Cell Signaling Technology, Danvers, MA, USA, 4412) were used for immunofluorescence staining. Nuclei were counterstained with DAPI Staining Solution (C1005, 10 mL) (Beyotime Biotechnology, Shanghai, China). Fluorescent images were captured using a 10× inverted fluorescence microscope. Quantitative analysis of fluorescence intensity was performed using ImageJ software 2.1.0 (National Institutes of Health, Bethesda, MD, USA).

293T renal cells [4] = assay: CCK-8 cytotoxicity assay, 293T; type: cell-based, human; details: Homo sapiens, HEK-293T, 24 h, CCK-8, 24 h exposure
Procedure: as §1, §2, §3, §4, §5, §6

Rat = details: rat, in vivo, po; cited from earlier work

Q: With `CCCC1COC(Cn2cncn2)(c2ccc(Cl)cc2Cl)O1` (centres unmarked) [Propiconazole, propiconazole] as the molecule, how does the “ADI - Acceptable Daily Intake” value [1] read?
A: Its value is 0.04 mg kg⁻¹ bw day⁻¹.

Q: And the LDH release (293T renal cells [2])?
A: Its LDH release is “significantly increased; also recorded: significantly elevated LDH release”.

Q: And the IC50 (NRK renal cells)?
A: Its IC50 is 203 µg/mL.

Q: And the IC50 (CCC-HEL-1 hepatocytes)?
A: The IC50 was 72.6 µg/mL.

Q: And the IC50 (IAR hepatocytes)?
A: The IC50 was 189 µg/mL.

Q: What about the “MRP2 upregulation relative to controls” value [3] of the same molecule?
A: Its value is 1.5 fold.

Q: And the IC50 (293T renal cells [4])?
A: Its IC50 is 27.2 µg/mL.

Q: And the “Mammals - Acute oral LD50” value (Rat)?
A: The value was 550 mg/kg.
